Test results as given in US5624935A, “Heterocyclic compounds having anti-diabetic activity and their use” (Sankyo Company, Limited, priority 1994, dated 1997).

Experiments:
[1] = test system: blood glucose level; assay: Hypoglycemic activity in hyperglycemic KK mice; format: in vivo, hyperglycemic male mice of the KK strain; conditions: Mus musculus, oral, 18 hours, vs solvent-only group, read-out: Hypoglycemic effect
Description: The test animals used were hyperglycemic male mice of the KK strain, each having a body weight of at least 40 g. The compounds under test were mixed with a 1:1 by volume mixture of polyethylene glycol 400 and water. Each animal was orally administered a test compound in the amount shown in the following Table 6 and then allowed to feed freely for 18 hours. At the end of this time, blood was collected from the tail veins without anesthesia. The blood glucose level (BGL) was determined by means of a glucose analyzer (GL-101, manufactured by Mitsubishi Kasei Co. or a Glucoroder-F manufactured by Shino Test Co.).
The hypoglycemic effect was calculated by the following equation: [formula] where: BGLs is the blood glucose level in the group administered a solvent only, but no active compound; and
BGLt is the blood glucose level in the group administered a test compound.
The results are shown in the following Table 6, in which each compound of the present invention is identified by the number of one of the following Examples in which its preparation is illustrated.

[2] = target: T1, Bovine lens aldose reductase (Bos taurus, UniProt P16116); assay: Inhibition of Aldose reductase; format: biochemical; conditions: for inhibition at 5 µg/mL: read-out: Inhibition at 5 μg/ml
T1 construct: Bovine lens aldose reductase was separated and partially purified; from tissue; host or cells: bovine lens
Description: Bovine lens aldose reductase was separated and partially purified by the method of S. Hyman and J. H. Kinoshita [J. Biol. Chem., 240, 877 (1965)] and K. Inagaki, I. Miwa and J. Okuda [Arch. Biochem. Biophys., 316, 337 (1982)], and its activity was determined photometrically by the method of Varma et al. [Biochem. Pharmac., 25, 2505 (1976)]. Inhibition of enzyme activity was measured for the compounds of the present invention at a concentration of 5 μg/ml, and the measured values were used to calculate the IC50 values.

[3] = test system: male F344 rats; assay: Toxicity, 2 weeks oral in rats; format: in vivo; conditions: for mortality rate: oral, 50 mg/kg per day, 2 weeks, male F344 rats; for abnormalities which could be attributed to the test compounds: rat, in vivo, po, 50 mg/kg/day
Description: The toxicity of the compounds of the present invention was tested on male F344 rats, divided into groups of 5. The test compound was adminstered orally to each test animal at a dose of 50 mg/kg of body weight per day for 2 weeks. The test compounds used were those of Examples 7 and 17 .

IC50 [2] | inhibition at 5 µg/mL [2] | Compound | inhibition in vivo at 1 mg/kg [1] | inhibition in vivo at 10 mg/kg [1] | mortality rate [3] | abnormalities which could be attributed to the test compounds [3]
3.76 µM | 61.6% | O=C1NC(=O)C(Cc2ccc(OCc3nc4cccnc4n3Cc3ccc(Cl)cc3)cc2)S1 (stereo not drawn) [Example 20, 5-(4-{3-(4-Chlorobenzyl)-3H-imidazo[4,5-b]pyridin-2-ylmethoxyl}benzyl)thiazolidine-2,4-dione] | 24.5% |  |  | 
2.02 µM | 76.3% | Cn1c(COc2ccc(CC3SC(=O)NC3=O)cc2)nc2cc(C(F)(F)F)cnc21 (stereo not drawn) [Example 18, 5-{4-(3-Methyl-6-trifluoromethyl-3H-imidazo[4,5-b]pyridin-2-ylmethoxy)benzyl}thiazolidine-2,4-dione] |  |  |  | 
8.68 µM | 58.1% | CN1c2ccccc2CC1COc1ccc(CC2SC(=O)NC2=O)cc1 (stereo not drawn) [Example 2, 5-[4-(1-Methylidolin-2-ylmethoxy)benzyl]thiazolidine-2,4-dione] | 27.7% |  |  | 
10 µM |  | O=C1NC(=O)C(Cc2ccc(OCCN3CCc4ccccc43)cc2)S1 (stereo not drawn) [Example 3, 5-{4-[2-(Indolin-1-yl)ethoxyl]benzyl}thiazolidine-2,4-dione] |  | 27% |  | 
2.42 µM | 81.6% | Cn1c(COc2ccc(CC3SC(=O)NC3=O)cc2)nc2cnccc21 (stereo not drawn) [Example 25] |  |  |  | 
9.67 µM | 59.1% | Cc1ccnc2c1nc(COc1ccc(CC3SC(=O)NC3=O)cc1)n2C (stereo not drawn) [Example 16, 5-{4-(3,7-Dimethyl-3H-imidazo[4,5-b]pyridin-2-ylmethoxy)benzyl}thiazolidine-2,4-dione] |  |  |  | 
 |  | Cn1c(COc2ccc(CC3SC(=O)NC3=O)cc2)cc2ccccc21 (stereo not drawn) [Example 10, 5-[4-(1-Methylindol-2-ylmethoxy)benzyl]thiazolidine-2,4-dione] | 11.6% |  |  | 
 | 53.9% | Cn1c(CCCOc2ccc(CC3SC(=O)NC3=O)cc2)nc2cccnc21 (stereo not drawn) [Example 14, 5-[4-{3-(3-Methyl-3H-imidazo[4,5-b]pyridin-2-yl)-propoxy}-benzyl]thiazolidine-2,4-dione] |  |  |  | 
4.02 µM | 77.2% | Cn1c(COc2ccc(CC3SC(=O)NC3=O)cc2)nc2cc(Br)cnc21 (stereo not drawn) [Example 22, 5-{4-(6-Bromo-3-methyl-3H-imidazo[4,5-b]pyridin-2-ylmethoxy)benzyl}thiazolidine-2,4-dione] | 10.2% |  |  | 
 |  | O=C1NC(=O)C(Cc2ccc(OCCn3cc(C(c4ccccc4)(c4ccccc4)c4ccccc4)c4ccccc43)cc2)S1 (stereo not drawn) [Example 5, 5-{4-[2-(3-Triphenylmethylindol-1-yl)ethoxyl]-benzyl}thiazolidine-2,4-dione] |  | 16.2% |  | 
3.23 µM | 94.9% | Cn1c(COc2ccc(CC3SC(=O)NC3=O)cc2)nc2cc(Cl)cnc21 (stereo not drawn) [Example 23, 5-{4-(6-Chloro-3-methyl-3H-imidazo[4,5-b]pyridin-2-ylmethoxy)benzyl}thiazolidine-2,4-dione] | 21.7% |  |  | 
7.06 µM |  | Cn1c(COc2ccc(CC3SC(=O)NC3=O)cc2)nc2ncccc21 (stereo not drawn) [Example 13] | 34% |  |  | 
6.28 µM |  | O=C1NC(=O)C(Cc2ccc(OCCc3c[nH]c4ccccc34)cc2)S1 (stereo not drawn) [Example 4, 5-{4-[2-(Indol-3-yl)ethoxy]benzyl}thiazolidine-2.4dione] |  |  |  | 
4.45 µM |  | CCn1c(COc2ccc(CC3SC(=O)NC3=O)cc2)nc2cccnc21 (stereo not drawn) [Example 12, 5-{4-(3-Ethyl-3H-imidazo[4,5-b]pyridin-2-ylmethoxy)-benzyl}thiazolidine-2,4-dione] |  |  |  | 
6.77 µM |  | O=C1NC(=O)C(Cc2ccc(OCc3nc4ncccc4[nH]3)cc2)S1 (stereo not drawn) [Example 15, 5-{4-(1H-Imidazo[4,5-b]pyridin-2-ylmethoxy)benzyl}-thiazolidine-2,4-dione] | 13.8% |  |  | 
1.97 µM | 91.8% | O=C1NC(=O)C(Cc2ccc(OCc3nc4cccnc4n3-c3ccccc3)cc2)S1 (stereo not drawn) [Example 27] |  |  |  | 
 | 53.3% | O=C1NC(=O)C(Cc2ccc(OCc3cn4ccccc4n3)cc2)S1 (stereo not drawn) [Example 9, 5-{4-(Imidazo[1,2-a]pyridin-2-ylmethoxy)benzyl}-thiazolidine2,4-dione] |  | 27.6% |  | 
 | 54.5% | O=C1NC(=O)C(Cc2ccc(OCC3Cc4ccccc4N3)cc2)S1 (stereo not drawn) [Example 1, 5-[4-(Indolin-2-ylmethoxy)benzyl]thiazolidine-2,4-dione] |  | 13.2% |  | 
 | 47% | O=C1NC(=O)C(Cc2ccc(OCCn3ccc4ccccc43)cc2)S1 (stereo not drawn) [Example 6, 5-{4-[2-(Indol-1-yl)ethoxy]benzyl}thiazolidine-1-dione] |  | 20.9% |  | 

Compound | IC50 [2] | inhibition at 5 µg/mL [2] | inhibition in vivo at 1 mg/kg [1] | inhibition in vivo at 10 mg/kg [1] | mortality rate [3] | abnormalities which could be attributed to the test compounds [3]
Cn1c(COc2ccc(CC3SC(=O)NC3=O)cc2)nc2cccnc21 (stereo not drawn) [Example 7, 5-{4-(3-Methyl-3H-imidazo[4,5-b]pyridin-2-methoxyl)-benzyl}thiazolidine-2,4-dione] | 2.71 µM |  | 24.7% |  | zero | no abnormalities
Cn1c(COc2ccc(CC3SC(=O)NC3=O)cc2)nc2ccc(Cl)nc21 (stereo not drawn) [Example 17, 5-{4-(5-Chloro-3-methyl-3H-imidazo[4,5-b]pyridin-2-ylmethoxy)benzyl}thiazolidine-2,4-dione] | 4.47 µM |  | 37.1% |  | zero | no abnormalities
